# Measurements from patent US20200087403A1, “PHARMACEUTICAL COMPOSITIONS FOR THE TREATMENT OF THROMBOSIS IN PATIENTS SUFFERING FROM A MYELOPROLIFERATIVE NEOPLASM” (INSERM (INSTITUT NATIONAL DE LA SANTÉ ET DE LA RECHERCHE …, priority 2017, published 2020).
# T1: P-selectin (Homo sapiens, UniProt P16109)
# T1 construct: host or cells: sickle cell disease patients (cited clinical trial)
# T1 sequence (P16109 42-830): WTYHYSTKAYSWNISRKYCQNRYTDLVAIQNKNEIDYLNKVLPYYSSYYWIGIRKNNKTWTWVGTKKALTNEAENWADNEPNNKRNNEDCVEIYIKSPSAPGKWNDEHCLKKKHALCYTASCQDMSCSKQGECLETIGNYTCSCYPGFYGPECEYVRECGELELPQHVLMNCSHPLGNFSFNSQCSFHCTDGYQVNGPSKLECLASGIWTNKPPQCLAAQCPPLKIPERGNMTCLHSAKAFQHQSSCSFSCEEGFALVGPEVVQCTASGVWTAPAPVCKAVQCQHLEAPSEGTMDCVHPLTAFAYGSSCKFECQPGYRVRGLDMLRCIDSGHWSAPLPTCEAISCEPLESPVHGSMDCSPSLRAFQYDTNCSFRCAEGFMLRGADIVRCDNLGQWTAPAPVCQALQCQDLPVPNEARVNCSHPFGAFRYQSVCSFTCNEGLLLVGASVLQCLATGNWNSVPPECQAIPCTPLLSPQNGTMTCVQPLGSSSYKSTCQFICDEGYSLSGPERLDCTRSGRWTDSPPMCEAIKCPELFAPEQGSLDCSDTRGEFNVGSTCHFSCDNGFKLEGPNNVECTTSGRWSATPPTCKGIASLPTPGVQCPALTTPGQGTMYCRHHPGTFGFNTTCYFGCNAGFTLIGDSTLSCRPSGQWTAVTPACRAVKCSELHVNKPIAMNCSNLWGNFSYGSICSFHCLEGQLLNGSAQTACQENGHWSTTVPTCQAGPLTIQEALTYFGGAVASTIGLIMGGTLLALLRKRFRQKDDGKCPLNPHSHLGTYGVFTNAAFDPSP
# B1: crizanlizumab: anti-P-selectin antibody, SEG101 also named crizanlizumab (antibody, chains of the INN, looked up, V domains shown)
# VH: QVQLVQSGAEVKKPGASVKVSCKVSGYTFTSYDINWVRQAPGKGLEWMGWIYPGDGSIKYNEKFKGRVTMTVDKSTDTAYMELSSLRSEDTAVYYCARRGEYGNYEGAMDYWGQGTLVTVSS
# VL: DIQMTQSPSSLSASVGDRVTITCKASQSVDYDGHSYMNWYQQKPGKAPKLLIYAASNLESGVPSRFSGSGSGTDFTLTISSLQPEDFATYYCQQSDENPLTFGGGTKVEIK
# Columns and labels:
# JAK2V617F HUVECs [1] = assay: In vitro static adhesion on endothelial cells; type: cell-based, human; conditions: HUVECs pretreated 24 hours with hydroxyurea 100 μM
# Method: Cell culture/Lentivirus transduction. Human umbilical venous endothelial cells (HUVECs, Lonza, Basel, Swiss) were cultured in EGM-2 media (Lonza, CC-3156) supplemented with EGM-2 Single Quots (Lonza, CC-4176). Cells were transduced with GFP lentivirus encoding human JAK2V617F or JAK2WT by adding lentiviral supernatant to the medium and incubating overnight at 37° C. An empty lentivirus encoding only for GFP was used as a negative control. Lentivirus were transduced at a multiplicity of infection of 20, allowing more than 95% of GFP positive cells. Transgene stability was verified after each passage and remaining stable throughout the passages. HUVECs were used for experiments between passage 5 and passage 7.
# In vitro static adhesion on endothelial cells. Blood samples were performed from well healthy voluntary witnesses. Blood was diluted with PBS (1/2 dilution) and deposed on lymphocyte separation medium (Pancoll, Dominique Dutscher, Brumath, France) before centrifugation at 450 g during 20 minutes to obtain mononuclear cells (MNC). […] We visualized adherent cells using a fluorescent microscope (AxioObserver, Zeiss, Oberkochen, Germany) and analysed images by ZEN imaging software (Zeiss). Well surface was quantified in order to obtain the following ratio: number of adherent cells/mm2. […]
# [2] = test system: Pdgfb-iCreERT2;JAK2^V617F/WT mice; assay: Intravital microscopy of mesenteric venules (leukocyte rolling and adhesion); type: in vivo; conditions: HU 200 mg/kg/day oral gavage 10 days, low dose TNF-alpha
# Text: (§1) Generation and characterization of Pdgfb-iCreERT2;JAK2^V617F/WT mice. The conditional flexed JAK2 (JAK2V617F/WT) mice were generously provided by J. L Villeval and have been previously described^19. The double-heterozygous Pdgfb-iCreERT2;JAK2^V617F/WT mice were generated by crossing JAK2^V617F/WT mice with Pdgfb-iCreERT2 mice allowing tamoxifen-inducible adult expression of JAK2^V617F in endothelium. Littermate Pdgfb-iCreERT2-negative;JAK2^V617F/WT mice were used as controls. To induce Cre activity in Pdgfb-iCreERT2;JAK2^V617F/WT mice, we used oral gavage of a single dose of 8 mg of tamoxifen. Tamoxifen induction was performed in 5 weeks-old animals. Mutant mice were analysed 2-3 weeks after tamoxifen administration. Ears of adult mice were genotyped by PCR. Haematocrit, hemoglobin level, platelet, and white cells count were determined using an automated counter (scil Vet abc Plus+) on blood collected from the sublingual vein in EDTA containing tubes. […]
# Video analysis. Rolling leukocytes were quantitated by counting the number of rhodamin-marked cells passing a given plane perpendicular to the vessel axis in 30 seconds. Adherent leukocytes were quantitated by counting the number of rhodamin-marked cells motionless during 30 seconds. Vessel surface was quantitated to perform the following ratio: adherent cells/vessel surface (number of cells/cm2). […]
# [3] = test system: Pdgfb-iCreERT2;JAK2^V617F/WT mice; assay: Mouse model of thrombus formation (low dose TNF-alpha induced lung thrombus formation); type: in vivo; conditions: HU 200 mg/kg/day oral gavage 10 days
# Text: as §1
# Histology. To quantify thrombus formation in mice, Carstair's staining was performed. […] Thrombus quantification was performed using an optical microscope and pulmonary area was quantitated to perform the following ratio: thrombi number/pulmonary area (number of thrombi/cm2). Three slides by mice were analysed by two independent observers, blindly. […]
# JAK2V617F HUVECs [4] = assay: Quantification of VWF in HUVEC supernatant; type: cell-based, human; conditions: 24 hours with 100 μM hydroxyurea
# Method: Quantification of VWF in HUVEC supernatant and in HUVECs. HUVEC cell were seeded in 12 wells plate (Costar). When they were confluent, they were washed with 500 μL of PBS (Gibco ThermoFisher Scientific) before adding 500 μL of medium not deprived. Experiments were performed in absence or in presence of TNF-alpha (10 ng/ml during 24 hours) (Merck Millipore). After 24 hours, supernatant was removed, centrifuged at 12000 g during 5 minutes and stored at −80° C. To quantify vWF in HUVECs, cells were washed with PBS before adding in wells 500 μL of PBS. Cells were destroyed in wells with scrapper. Liquid was removed and 5 freezing and thawing successions were performed. Finally, the intracellular lysates were centrifuged at 12000 g during 5 minutes and stored at −80° C. As previously published^45, vWF was quantified following this method: […] plate (Greiner, Flat Bottom) were coated with an anti-vWF antibody (DAKO, Les Ulis, France, A0082) diluted at 1/660 in a coating buffer overnight at 4° C. After washing and blocking, sample of HUVEC supernatant and intracellular lysate were put in wells. Standards were realized with a platelet poor plasma from a healthy donor. […] After 2 minutes of coloration, the reaction was blocked with a H2SO4 3M solution and reading was performed at 492 nm with OPTIMA plate reader. […]
# sickle cell mice = conditions: TNF-alpha treated sickle cell mice; cited from earlier work
# P-selectin = target: T1, P-selectin; conditions: clinical trial, patients; cited from earlier work
Molecule,neutrophil adhesion on JAK2V617F HUVECs (JAK2V617F HUVECs [1]),leukocyte adhesion [2],leukocyte rolling [2],thrombus formation in lungs [3],vWF concentrations in the supernatant of JAK2V617F HUVECs (JAK2V617F HUVECs [4]),leukocyte rolling in the microvasculature (sickle cell mice),pain crises in sickle cell disease (P-selectin)
NC(=O)NO [hydroxyurea],significant reduction,reduction,reduction,significant inhibition,decreased,reduction,–
B1,–,–,–,–,–,–,efficiently prevented
